Tests used:
[1] = molecular target: T1, Acetyl CoA Carboxylase (Mus musculus, UniProt Q5SWU9); experiment: In vivo liver enzyme study: acetyl CoA carboxylase; details: CF1 liver after 16 days i.p.
T1 construct: 10% homogenates of CF1 male mouse liver; from tissue; host or cells: CF1 male mouse liver, 10% homogenate
Description: In vitro enzymatic studies were determined using 10% homogenates of CF1 male mouse liver with 50-200 μM of test drugs. In vivo enzymatic studies were determined using 10% homogenates of liver from CF1 male mice obtained after administering the agents for 16 days at a dose ranging from 2.5-20 mg/kg/day intraperitoneally. The liver homogenates for both in vitro and in vivo studies were prepared in 0.25M sucrose and 0.001M (ethylenedinitrilo)tetraacetic acid. Acetyl coenzyme A synthetase and adenosine triphosphate dependent citrate lyase activities were determined spectrophotometrically at 540 nm as the hydroxylamate of acetyl coenzyme A formed after 30 min at 37° C. Mitochondrial citrate exchange was determined by the procedure of Robinson et al [Eur. J. Biochem., 216, 63 (1970)] using ^14 C-sodium bicarbonate (41 mCi/mmol) incorporated into mitochondrial ^14 C-citrate after isolating rat mitochondria (9000 g×10 min) from the homogenates. The exchanges of the ^14 C-citrate were determined after incubating the mitochondrial fraction which was loaded with labeled citrate and test drugs for 10 min. Then the radioactivity was measured in the mitochondrial and supernantant fractions in scintillation fluid and expressed as a percentage. Cholesterol side chain oxidation was determined by the method of Kritchevsky and Tepper [Artherosclerosis, 18, 93 (1973)] using (26-^14 C) cholesterol (50 mCi/mmol) and mitochondria isolated from rat liver homogenates. […] Fatty acid synthetase activity was determined by the method of Brady et al [J. Biol. Chem., 235, 3093 (1960)] using [2-^14 C] malonyl-coenzyme A (37.5 mCi/mmol) which was incorporated into newly synthesized fatty acids that were extracted with ether and counted. Acyl transferase activity was determined with glycerol-3phosphate [L-2-^3 H(N)] […] HCl and counted. Phosphatidate phosphohydrolase activity was measured as the inorganic phosphate released after 30 min from phosphatidic acid by the method of Mavis et al [J. Lipid Res., 19, 467 (1978)]. […]

[2] = tested on: Phosphatidate Phosphohydrolase; experiment: In vivo liver enzyme study: phosphatidate phosphohydrolase; design: species or system mouse; details: for Phosphatidate Phosphohydrolase: CF1 liver after 16 days i.p.
Description: In vitro enzymatic studies were determined using 10% homogenates of CF1 male mouse liver with 50-200 μM of test drugs. In vivo enzymatic studies were determined using 10% homogenates of liver from CF1 male mice obtained after administering the agents for 16 days at a dose ranging from 2.5-20 mg/kg/day intraperitoneally. The liver homogenates for both in vitro and in vivo studies were prepared in 0.25M sucrose and 0.001M (ethylenedinitrilo)tetraacetic acid. Acetyl coenzyme A synthetase and adenosine triphosphate dependent citrate lyase activities were determined spectrophotometrically at 540 nm as the hydroxylamate of acetyl coenzyme A formed after 30 min at 37° C. Mitochondrial citrate exchange was determined by the procedure of Robinson et al [Eur. J. Biochem., 216, 63 (1970)] using ^14 C-sodium bicarbonate (41 mCi/mmol) incorporated into mitochondrial ^14 C-citrate after isolating rat mitochondria (9000 g×10 min) from the homogenates. The exchanges of the ^14 C-citrate were determined after incubating the mitochondrial fraction which was loaded with labeled citrate and test drugs for 10 min. Then the radioactivity was measured in the mitochondrial and supernantant fractions in scintillation fluid and expressed as a percentage. Cholesterol side chain oxidation was determined by the method of Kritchevsky and Tepper [Artherosclerosis, 18, 93 (1973)] using (26-^14 C) cholesterol (50 mCi/mmol) and mitochondria isolated from rat liver homogenates. After 18 hr incubation at 37° C. with test drugs, the generated ^14 CO2 was trapped in the center well in {2-(2-(p-1,1,3,3,-tetramethylbutylcresoxy)ethoxy]ethyl } dimethylbenzylammonium hydroxide and counted. 3-Hydroxy-3-methylglutaryl coenzyme A reductase (HMG coenzyme A reductase) activity was measured using 1-^14 C-acetate (56 mCi/mmol) and a post-mitochondrial supernatant (9000 g×20 min) incubated for 60 min at 37° C. [Wada et al, J. Biochem. (Tokyo), 65 71 (1969)]. The digitonide derivative of cholesterol was isolated and counted. Acetyl coenzyme A carboxylase activity was measured by the method of Greenspan and Lowenstein [J. Biol. Chem., 243, 6273 (1968)]. […] Fatty acid synthetase activity was determined by the method of Brady et al [J. Biol. Chem., 235, 3093 (1960)] using [2-^14 C] malonyl-coenzyme A (37.5 mCi/mmol) which was incorporated into newly synthesized fatty acids that were extracted with ether and counted. Acyl transferase activity was determined with glycerol-3phosphate [L-2-^3 H(N)] […] HCl and counted. Phosphatidate phosphohydrolase activity was measured as the inorganic phosphate released after 30 min from phosphatidic acid by the method of Mavis et al [J. Lipid Res., 19, 467 (1978)]. The released inorganic phosphate after development with ascorbic acid and ammonium molybdate was determined at 820 nm. […]

[3] = molecular target: thymidylate synthetase (Mus musculus, UniProt P07607); experiment: In vivo thymidylate synthetase activity
Sequence of thymidylate synthetase (P07607 whole entry): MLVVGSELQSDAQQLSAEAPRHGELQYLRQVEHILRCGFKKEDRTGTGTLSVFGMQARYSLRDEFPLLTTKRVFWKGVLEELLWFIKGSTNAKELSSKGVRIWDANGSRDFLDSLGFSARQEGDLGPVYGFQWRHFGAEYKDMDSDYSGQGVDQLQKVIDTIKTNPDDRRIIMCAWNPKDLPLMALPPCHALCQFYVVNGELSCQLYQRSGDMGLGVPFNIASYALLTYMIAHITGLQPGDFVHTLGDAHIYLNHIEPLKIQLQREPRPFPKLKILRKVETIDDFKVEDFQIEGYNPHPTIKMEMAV
Description: CF1 male mice (~30 g) were implanted with 2×10^6 Ehrlich ascites tumor cells, intraperitoneally on Day 0. Compound I was suspended by homogenation in 0.05% polysorbate.80-water and administered intraperitoneally at 10 and 20 mg/kg for 9 days to determine its effectiveness for inhibition of tumor growth. Mice were sacrificed on Day 10, and the ascites fluid was collected from the peritoneal cavity. The volume and ascrit (packed cell volume) were determined for each animal and the percent inhibition of tumor growth was calculated. For the metabolic studies, mice were treated on Days 8 and 9 with 10 mg/kg of Compound I, intraperitoneally. […]
Carbamyl phosphate synthetase activity was determined using the reaction medium of Kalman et al [Am. […] Citrulline formed from ornithine was measured at 490 nm by the method of Archibald [J. Biol. Chem., 156, 121 (1944)]. […] The ^14 CO2 generated in 15 min was trapped in 1M KOH and counted. Thymidylate synthetase activity was determined using a post-mitochondrial supernatant (9000 g×10 min) and 5 μCi of 5-^3 H-deoxyuridine monophosphate (14 Ci/mmol) according to the method of Kampf et al [ J. Med. Chem., 19, 903 (1976)]. ^14 C-Formate incorporation into purines was determined by the method of Spassova et al [Biochem. Pharmacol., 25, 923 (1976)] using 0.5 μCi of ^14 C-formic acid (52.0 mCi/mmol). […] The Rf value for xanthine monophosphate was scraped and counted. […]

Q: With “{Cu[(CH3)3 N.BH2 CO2 ]2.(CH3)3 N.BH2 COOH} [Compound I]” as the substance, how does the “Acetyl CoA Carboxylase” value ([1]; 2.5 mg/kg) read?
A: 103 ± 6% of control

Q: What about the “Acetyl CoA Carboxylase” value ([1]; 5.0 mg/kg) of the same substance?
A: 95% of control

Q: And the “Acetyl CoA Carboxylase” value ([1]; 10 mg/kg)?
A: 120 ± 7% of control

Q: What about the “Phosphatidate Phosphohydrolase” value ([2]; 2.5 mg/kg) of the same substance?
A: 55 ± 5% of control

Q: And the “Phosphatidate Phosphohydrolase” value ([2]; 5.0 mg/kg)?
A: 53 ± 5% of control

Q: And the “Phosphatidate Phosphohydrolase” value ([2]; 10 mg/kg)?
A: 18% of control

Q: And the “Phosphatidate Phosphohydrolase activity reduction” value ([2]; in vivo, mice 16 days, 10 mg/kg/day)?
A: 82%

Q: What about the “Thymidylate synthetase activity suppressed” value [3] of the same substance?
A: 5%

Q: And the Thymidylate synthetase activity ([3]; 10 mg/kg/day I.P. on Days 8 and 9)?
A: 102 ± 9 % Control
